Where “and” joins values, the source holds several entries; their conditions need not be identical. Equal entries are not always repeated.
Tests used:
androgen receptor [1] = target: T1, androgen receptor (Rattus norvegicus, UniProt P15207); assay: Androgen Receptor Binding Using Rat Ventral Prostate Cytosol; design: from tissue; host or cells: ventral prostate cytosol of castrated male Sprague Dawley or Wistar rats; details: Rat Cytosol
T1 sequence (P15207 1-902): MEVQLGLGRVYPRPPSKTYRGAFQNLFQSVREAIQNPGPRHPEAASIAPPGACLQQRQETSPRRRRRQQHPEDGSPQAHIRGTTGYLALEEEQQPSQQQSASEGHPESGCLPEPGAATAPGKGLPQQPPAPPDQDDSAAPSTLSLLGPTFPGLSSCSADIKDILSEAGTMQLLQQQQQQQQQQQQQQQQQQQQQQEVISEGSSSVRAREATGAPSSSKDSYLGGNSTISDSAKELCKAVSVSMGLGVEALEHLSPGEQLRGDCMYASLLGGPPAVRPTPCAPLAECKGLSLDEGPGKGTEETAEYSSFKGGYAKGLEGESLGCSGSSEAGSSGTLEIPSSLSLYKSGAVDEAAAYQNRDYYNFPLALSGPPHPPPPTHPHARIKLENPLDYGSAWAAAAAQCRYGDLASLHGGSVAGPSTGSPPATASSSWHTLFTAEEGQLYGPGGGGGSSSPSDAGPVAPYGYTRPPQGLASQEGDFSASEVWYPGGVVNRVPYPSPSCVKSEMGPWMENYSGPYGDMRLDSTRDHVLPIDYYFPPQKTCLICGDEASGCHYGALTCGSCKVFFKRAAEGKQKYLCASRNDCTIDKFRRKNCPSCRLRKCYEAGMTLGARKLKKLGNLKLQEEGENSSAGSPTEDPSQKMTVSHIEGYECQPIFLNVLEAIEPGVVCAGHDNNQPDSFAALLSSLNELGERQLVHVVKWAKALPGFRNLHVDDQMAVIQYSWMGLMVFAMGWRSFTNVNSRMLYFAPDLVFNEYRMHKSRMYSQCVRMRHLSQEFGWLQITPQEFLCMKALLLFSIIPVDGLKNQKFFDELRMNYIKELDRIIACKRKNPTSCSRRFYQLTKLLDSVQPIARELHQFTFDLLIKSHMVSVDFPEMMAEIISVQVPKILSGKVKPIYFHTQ
Method: Rat Prostate Cytosol Preparation:
Male Sprague Dawley or Wistar rats (Charles River, 200-300 g) were used for each preparation. The day before preparing the cytosol, the rats were castrated using standard surgical procedures.
The rats were euthanized by carbon dioxide asphyxiation. The rat prostates were quickly removed and placed on ice in pre-chilled, pre-weighed 50 mL plastic tubes. No more than five prostates were placed into one tube. The tubes were then weighed and the prostate tissue wet weights calculated.
To the chilled prostate tissue was then added […] of chilled homogenization buffer. The homogenization buffer was freshly prepared by mixing 10 mM Tris.HCl, pH 7.4, 1 mM sodium molybdate, 1.5 mM EDTA, 1 mM dithiothreitol, 10% (v/v) glycerol and 1% protease inhibitor cocktail (Sigma P 8340).
The prostate tissue was homogenized in a cold room using a pre-chilled Polytron PT3000 homogenizer (Brinkmann). Homogenization was performed at a speed setting of 20, three times for 10 sec bursts. The tubes containing the prostate tissue was kept on ice while homogenizing. The homogenate was allowed to rest on ice for 20 sec between bursts.
The homogenate was then placed into pre-chilled 3 mL polycarbonate ultracentrifuge tubes and centrifuged in the TLA-100 rotor of a TL-100 ultracentrifuge for 12 min at 100,000 rpm at 4° C. The resulting supernatant was stored in 1 mL aliquots at −80° C. until needed.
Binding to the androgen receptor was determined according to the protocol described in Example 86 using the above prepared rat cytosol.
% Inhibition was determined by testing dilutions of the test compound (usually duplicates of 10 μM) in the binding assay. Counts per well were measured and percents of inhibition determined. […] Counts per well were measured and IC50s determined by linear regression.

androgen receptor [2] = target: T1, androgen receptor; assay: L929 Androgen Receptor Functional Assay, Adenovirus Transduction; type: cell-based; design: expressed in transfected cells; host or cells: L929 cells transduced with adenovirus AdEasy+rAR; details: for % Activity: L929 agonist testing
Method: L929 cells were plated in 96-well plates at 20,000 cells per well, in DMEM/F12 (GIBCO) containing 10% (v/v) charcoal-treated fetal bovine serum (Hyclone) and lacking phenol red. The plates were then incubated overnight at 37° C. in 5% (v/v) humidified CO2.
Test compound dilutions were prepared in 100% (v/v) DMSO, if necessary. Each dilution was made to 1250× the final desired assay concentration.
First, 2 mL of DMEM/F12 lacking phenol red was pipetted into the wells of a 2-mL 96-well assay block. Next, 4 μL of the 1250× test compound dilutions were pipetted into each well of the assay block. The mixtures within the well were then carefully mixed by pipette.
In a 15 mL or 50 mL sterile centrifuge tube, a 2.5 nM (2.5×) dilution of R1881 (methyl-trienolone) in DMEM/F12 lacking phenol red was prepared.
In a second 15 mL or 50 mL centrifuge tube a solution containing an equal volume of DMEM to the first and an equal volume of 100% (v/v) DMSO to the volume of R1881 used in the first tube was prepared.
In a 15 mL or 50 mL sterile centrifuge tube, a dilution in DMEM/F12 of the adenovirus AdEasy+rAR at an moi of 1:500 per well was prepared.
The medium was removed from the 96-well plates by inversion and dried, inverted, very briefly. As soon as possible after medium removal, 40 μL of the diluted unlabeled test compound was added to each well, in duplicate. To each well designated for antagonist testing was added 40 μL of the 2.5 nM R1881 dilution to the wells for antagonist testing. To each well designated for agonist testing was added 40 μL of the DMSO dilution. Then 20 μL of the diluted adenovirus were added to all wells. The plates were incubated for 48 hours at 37° C. in 5% (v/v) humidified CO2.
To each well was added 100 μL of Steady-Glo luciferase assay substrate (Promega) and the plates were placed on a rotary shaker for 1 min. The plates were then incubated at room temperature in the dark for one hour. The contents of each well were then transferred to a white microtiter plate (Packard) and read on a Luminoskan Ascent (Thermo Lab Systems).
L929 AR percent activity was determined by testing dilutions of the test compound using a concentration of 3000 nM unless otherwise noted. L929 percent inhibition was determined by testing dilutions of the test compound using a concentration of 3000 nM. […] Luciferase activity per well were measured and EC50s and IC50s determined by linear regression.

| Compound | % Activity (androgen receptor [2]; concentration of 3000 nM) [%] | other results |
| --- | --- | --- |
| CC(O)(c1cc2cc([N+](=O)[O-])c(C(F)(F)F)cc2[nH]1)S(=O)(=O)c1ccc(Cl)c(Cl)c1 (racemic) [compound 255] |  | % Inhibition (androgen receptor [1]; Concentration 1000 nM): 26% |
| CC[S+]([O-])CC(O)c1cc2cc([N+](=O)[O-])c(C(F)(F)F)cc2[nH]1 (mixture of isomers) [compound 180] | 2 |  |
| CSC(C)(O)c1cc2cc([N+](=O)[O-])c(C(F)(F)F)cc2[nH]1 (racemic) [compound 267] |  | % Activity (androgen receptor [2]; concentration of 3000 nM, 3 µM): −5% and 0% |
| CCSCC(C)(O)c1cc2cc(C#N)c(C(F)(F)F)cc2[nH]1 (single isomer, unassigned) [Compound #217, 2-(2-Ethylsulfanyl-1-hydroxy-1-methyl-ethyl)-6-trifluoromethyl-1H-indole-5-carbonitrile] |  | % Activity (androgen receptor [2]; @ 8000 nM): 0 @ 8000 nM % |
| CN(C)c1ccc(S(=O)(=O)CC(C)(O)c2cc3cc(Cl)c(C(F)(F)F)cc3[nH]2)cc1 (racemic) [compound 126] | −5 | % Inhibition (androgen receptor [1]; Concentration 3000 nM): −30% |
| CC(O)(c1cc2cc(C#N)c(C(F)(F)F)cc2[nH]1)S(=O)(=O)c1ccc(Cl)cc1 (racemic) [compound 262] |  | % Inhibition (androgen receptor [1]; Concentration 1000 nM): −8.4% |
| CSCCC(C)(O)c1cc2cc([N+](=O)[O-])c(C(F)(F)F)cc2[nH]1 (stereo not drawn) [compound 47] | 2 |  |
| CC(O)(CS(=O)(=O)Cc1ccccc1)c1cc2cc([N+](=O)[O-])c(C(F)(F)F)cc2[nH]1 (racemic) [compound 162] | 2 | % Inhibition (androgen receptor [1]; Concentration 3000 nM): 0.69% |
| CC(C)SC(C)(CO)c1cc2cc([N+](=O)[O-])c(C(F)(F)F)cc2[nH]1 (racemic) [compound 268] | 9 | % Inhibition (androgen receptor [1]; Concentration 3000 nM): −3.3% |
| CS(=O)(=O)n1c(C2(O)CCN(C(=O)c3ccc(Cl)cc3)CC2)cc2cc(Cl)c(C(F)(F)F)cc21 [compound 24] |  | % Inhibition (androgen receptor [1]; Concentration 1000 nM): 2% |
| CC(O)(CS(C)(=O)=O)c1cc2cc(Cl)c(C(F)(F)F)cc2n1S(C)(=O)=O (stereo not drawn) [compound 137] | 0 |  |
| CC(O)(Sc1ccc(Cl)c(Cl)c1)c1cc2cc([N+](=O)[O-])c(C(F)(F)F)cc2[nH]1 (racemic) [compound 254] |  | % Inhibition (androgen receptor [1]; Concentration 1000 nM): 41% |
| CC(O)(CSCc1ccco1)c1cc2cc([N+](=O)[O-])c(C(F)(F)F)cc2[nH]1 (racemic) [compound 198] | 7 |  |
| CC(O)(Sc1ccc(N)cc1)c1cc2cc(Cl)c(C(F)(F)F)cc2[nH]1 (racemic) [compound 265] | −1 | % Inhibition (androgen receptor [1]; Concentration 3000 nM): 93.5% |
| CCCSCC(C)(O)c1cc2cc(Cl)c(C(F)(F)F)cc2[nH]1 (racemic) [compound 196] | 13 |  |
| COc1ccc(S(=O)(=O)CC(C)(O)c2cc3cc(Cl)c(C(F)(F)F)cc3n2S(C)(=O)=O)cc1 (stereo not drawn) [compound 128] | −4 |  |
| CC(C)CSCC(C)(O)c1cc2cc([N+](=O)[O-])c(C(F)(F)F)cc2[nH]1 (stereo not drawn) [compound 170] | 2 |  |
| CC(O)(Sc1ccc(Cl)cc1)c1cc2cc(C#N)c(C(F)(F)F)cc2[nH]1 (racemic) [compound 261] |  | % Inhibition (androgen receptor [1]; Concentration 1000 nM): 14.05% |
| CC(O)(CSc1ccc(C(=O)O)cc1)c1cc2cc(Cl)c(C(F)(F)F)cc2n1S(C)(=O)=O (stereo not drawn) [compound 132] | −5 |  |
| CC(O)(CSCC(F)(F)F)c1cc2cc(C#N)c(C(F)(F)F)cc2[nH]1 (racemic) [compound 211] | −1 |  |
| CCS(=O)(=O)CC(C)(O)c1cc2cc(C#N)c(C(F)(F)F)cc2n1C (racemic) [compound 240] | 0 |  |
| CC(O)(Sc1ccccc1)c1cc2cc([N+](=O)[O-])c(C(F)(F)F)cc2[nH]1 (racemic) [compound 258] |  | % Inhibition (androgen receptor [1]; Concentration 1000 nM): 35.4% |
| CC(O)(CSc1ccc(C(=O)O)cc1)c1cc2cc(Cl)c(C(F)(F)F)cc2[nH]1 (stereo not drawn) [compound 133] | −4 |  |
| CC[S+]([O-])CC(C)(O)c1[nH]c2cc(C(F)(F)F)c(C#N)cc2c1C (stereo not drawn) [compound 252] |  | IC50 (androgen receptor [2]; L929 antagonist testing with R1881): 3.1 µM |
| CC(O)(CS(=O)(=O)CC(F)(F)F)c1cc2cc([N+](=O)[O-])c(C(F)(F)F)cc2[nH]1 (racemic) [compound 208] | 1 |  |
| CSCCC(C)(O)c1cc2cc(Cl)c(C(F)(F)F)cc2[nH]1 (racemic) [compound 51] | 2 |  |

— US9434688B2, “Indole derivatives as selective androgen receptor modulators (SARMS)” (Janssen Pharmaceutica, NV, priority 2004, dated 2016)
